In patent US9708318B2, “Bicyclic heterocycles as FGFR4 inhibitors” (Incyte Corporation, priority 2015, dated 2017):
Like-named read-outs stand apart in the source and are kept apart here.

Legend:
[1] = target: FGFR2 (Homo sapiens (Human), UniProt P21802); experiment: FGFR Enzymatic Assay (FRET peptide phosphorylation), FGFR2; type: biochemical
Description: (§1) The inhibitor potency of the exemplified compounds was measured in an enzyme assay that measures peptide phosphorylation using FRET measurements to detect product formation. Inhibitors were serially diluted in DMSO and a volume of 0.5 μL was transferred to the wells of a 384-well plate.
(§2) The enzymes were purchased from Millipore or Invitrogen.
(§3) GraphPad prism3 was used to analyze the data.

[2] = target: FGFR3 enzyme (Homo sapiens (Human), UniProt P22607); experiment: FGFR Enzymatic Assay (FRET peptide phosphorylation), FGFR3; type: biochemical; conditions: for IC50: read-out: FGFR3 IC50; for FGFR1/FGFR3 IC50 ratio / FGFR4/FGFR3 IC50 ratio: FGFR3 selectivity
Description: as §1, §3

[3] = target: FGFR4 (Homo sapiens (Human), UniProt P22455); experiment: FGFR Enzymatic Assay (FRET peptide phosphorylation), FGFR4; type: biochemical
Description: as §1, §2, §3

[4] = target: FGFR1 (Homo sapiens (Human), UniProt P11362); experiment: FGFR Enzymatic Assay (FRET peptide phosphorylation), FGFR1
[5] = pre-incubated for 5 to 10 minutes
[6] = FGFR1 IC50 (nM), pre-incubated for 5 to 10 minutes
[7] = FGFR1 IC50 (nM), pre-incubated for 4 hours
[8] = read-out: FGFR1 IC50, pre-incubated for 4 hours

Chain of FGFR2 (P21802 22-821): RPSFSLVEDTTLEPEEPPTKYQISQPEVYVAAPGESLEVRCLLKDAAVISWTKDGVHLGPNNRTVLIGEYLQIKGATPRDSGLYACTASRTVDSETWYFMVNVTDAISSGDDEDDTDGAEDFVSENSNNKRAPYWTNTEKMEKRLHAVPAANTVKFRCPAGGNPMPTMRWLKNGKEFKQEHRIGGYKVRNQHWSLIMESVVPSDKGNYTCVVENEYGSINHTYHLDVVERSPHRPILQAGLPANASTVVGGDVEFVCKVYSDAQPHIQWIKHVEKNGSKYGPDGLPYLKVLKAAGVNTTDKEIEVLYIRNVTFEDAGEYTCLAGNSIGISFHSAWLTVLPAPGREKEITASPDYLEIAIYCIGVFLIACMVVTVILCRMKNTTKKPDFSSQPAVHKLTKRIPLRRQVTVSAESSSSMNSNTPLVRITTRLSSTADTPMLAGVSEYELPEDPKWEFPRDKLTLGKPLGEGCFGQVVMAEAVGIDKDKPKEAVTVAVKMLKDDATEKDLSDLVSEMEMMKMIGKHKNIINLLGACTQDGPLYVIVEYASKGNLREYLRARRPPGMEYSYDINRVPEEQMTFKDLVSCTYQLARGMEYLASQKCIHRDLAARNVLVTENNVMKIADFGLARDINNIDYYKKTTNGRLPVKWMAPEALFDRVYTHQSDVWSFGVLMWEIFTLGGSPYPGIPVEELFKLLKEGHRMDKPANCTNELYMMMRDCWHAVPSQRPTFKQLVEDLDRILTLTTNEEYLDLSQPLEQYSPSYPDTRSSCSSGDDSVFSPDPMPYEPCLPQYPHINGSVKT
Chain of FGFR4 (P22455 22-802): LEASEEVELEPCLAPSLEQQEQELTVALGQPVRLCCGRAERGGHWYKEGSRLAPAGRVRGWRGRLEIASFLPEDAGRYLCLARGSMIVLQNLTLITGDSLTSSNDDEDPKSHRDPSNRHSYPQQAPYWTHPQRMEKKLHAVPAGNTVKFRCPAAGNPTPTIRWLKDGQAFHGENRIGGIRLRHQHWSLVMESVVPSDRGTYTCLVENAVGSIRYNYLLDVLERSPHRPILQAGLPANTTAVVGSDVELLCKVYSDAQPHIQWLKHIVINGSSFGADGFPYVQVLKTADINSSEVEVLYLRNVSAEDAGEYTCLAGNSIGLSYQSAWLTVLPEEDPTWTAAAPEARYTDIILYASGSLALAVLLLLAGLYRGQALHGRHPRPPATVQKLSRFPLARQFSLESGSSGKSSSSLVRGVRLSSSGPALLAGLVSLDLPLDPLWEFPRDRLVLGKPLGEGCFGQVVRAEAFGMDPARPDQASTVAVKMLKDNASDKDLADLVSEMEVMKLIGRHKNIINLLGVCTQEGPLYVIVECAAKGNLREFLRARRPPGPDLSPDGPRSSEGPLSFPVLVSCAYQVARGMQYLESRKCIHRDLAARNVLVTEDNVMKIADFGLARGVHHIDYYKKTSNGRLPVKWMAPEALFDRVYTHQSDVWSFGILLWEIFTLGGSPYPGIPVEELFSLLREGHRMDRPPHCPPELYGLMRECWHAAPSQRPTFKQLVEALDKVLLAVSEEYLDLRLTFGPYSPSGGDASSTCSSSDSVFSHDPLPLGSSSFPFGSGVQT
Chain of FGFR3 enzyme (P22607 23-806): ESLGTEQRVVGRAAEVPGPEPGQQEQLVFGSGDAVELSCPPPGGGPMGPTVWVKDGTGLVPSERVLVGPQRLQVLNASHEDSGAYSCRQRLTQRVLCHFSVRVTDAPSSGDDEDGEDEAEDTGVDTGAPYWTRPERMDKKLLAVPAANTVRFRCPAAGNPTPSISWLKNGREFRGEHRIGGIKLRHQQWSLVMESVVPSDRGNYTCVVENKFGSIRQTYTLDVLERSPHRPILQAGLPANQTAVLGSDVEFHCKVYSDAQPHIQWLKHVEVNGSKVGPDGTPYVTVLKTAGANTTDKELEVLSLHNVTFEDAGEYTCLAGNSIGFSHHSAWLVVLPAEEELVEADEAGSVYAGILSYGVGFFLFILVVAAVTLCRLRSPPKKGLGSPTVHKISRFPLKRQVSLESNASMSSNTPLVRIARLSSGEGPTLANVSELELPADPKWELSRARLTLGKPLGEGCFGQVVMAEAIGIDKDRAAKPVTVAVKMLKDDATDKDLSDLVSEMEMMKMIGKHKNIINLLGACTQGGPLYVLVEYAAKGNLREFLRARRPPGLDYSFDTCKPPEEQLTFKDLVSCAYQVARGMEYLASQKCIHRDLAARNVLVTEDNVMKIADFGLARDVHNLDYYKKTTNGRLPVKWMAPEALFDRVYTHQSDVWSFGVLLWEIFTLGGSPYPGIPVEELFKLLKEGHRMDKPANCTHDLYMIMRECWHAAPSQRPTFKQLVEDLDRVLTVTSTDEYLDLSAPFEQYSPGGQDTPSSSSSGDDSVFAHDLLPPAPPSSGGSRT
Chain of FGFR1 (P11362 22-822): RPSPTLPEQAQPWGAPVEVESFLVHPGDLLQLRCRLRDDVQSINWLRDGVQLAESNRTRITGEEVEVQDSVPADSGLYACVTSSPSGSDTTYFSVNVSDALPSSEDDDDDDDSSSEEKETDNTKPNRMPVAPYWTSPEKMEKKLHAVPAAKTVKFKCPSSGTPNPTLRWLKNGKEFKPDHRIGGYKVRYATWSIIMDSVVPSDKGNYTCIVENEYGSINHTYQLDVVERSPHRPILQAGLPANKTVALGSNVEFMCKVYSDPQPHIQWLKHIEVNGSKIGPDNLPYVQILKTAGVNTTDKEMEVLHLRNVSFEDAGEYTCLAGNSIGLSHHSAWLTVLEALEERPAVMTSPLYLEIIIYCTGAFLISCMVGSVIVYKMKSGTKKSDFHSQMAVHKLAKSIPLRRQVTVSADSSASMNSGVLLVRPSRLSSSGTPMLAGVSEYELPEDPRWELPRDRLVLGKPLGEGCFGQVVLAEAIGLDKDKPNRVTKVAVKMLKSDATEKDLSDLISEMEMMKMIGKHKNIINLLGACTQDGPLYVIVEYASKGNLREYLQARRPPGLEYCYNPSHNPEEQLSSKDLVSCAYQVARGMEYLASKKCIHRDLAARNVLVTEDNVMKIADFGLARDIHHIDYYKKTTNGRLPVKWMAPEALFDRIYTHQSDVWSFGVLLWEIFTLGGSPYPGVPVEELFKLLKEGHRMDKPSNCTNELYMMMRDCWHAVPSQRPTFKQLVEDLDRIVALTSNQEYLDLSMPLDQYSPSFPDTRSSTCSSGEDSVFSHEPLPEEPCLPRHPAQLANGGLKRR

IC50 [1, 5] | IC50 [2, 5] | IC50 [3, 5] | IC50 [4, 6] | IC50 ([1]; pre-incubated for 4 hours) | FGFR1/FGFR3 IC50 ratio ([2]; pre-incubated for 4 hours) | FGFR4/FGFR3 IC50 ratio ([2]; pre-incubated for 4 hours) | IC50 ([2]; pre-incubated for 4 hours) | IC50 ([3]; pre-incubated for 4 hours) | IC50 [4, 7] | IC50 [4, 8] | SMILES
10 to 30 nM | 10 to 30 nM | 30 to 200 nM | 30 to 200 nM | – | – | – | – | – | – | – | COc1cc(OC)c(F)c(N2Cc3cnc(-c4ccc(C5(C#N)CCC5)nc4)cc3N(c3ccccn3)C2=O)c1F [Example 137, 1-(5-(3-(2,6-difluoro-3,5-dimethoxyphenyl)-2-oxo-1-(pyridin-2-yl)-1,2,3,4-tetrahydropyrido[4,3-d]pyrimidin-7-yl)pyridin-2-yl)cyclobutanecarbonitrile]
10 to 30 nM | 10 to 30 nM | 30 to 200 nM | 30 to 200 nM | – | – | – | – | – | – | – | COc1cc(OC)c(F)c(N2Cc3cnc(-c4ccc(C5(C#N)CCC5)nc4)cc3N(c3cccnc3)C2=O)c1F [Example 138, 1-(5-(3-(2,6-difluoro-3,5-dimethoxyphenyl)-2-oxo-1-(pyridin-3-yl)-1,2,3,4-tetrahydropyrido[4,3-d]pyrimidin-7-yl)pyridin-2-yl)cyclobutanecarbonitrile]
< 10 nM | < 10 nM | 30 to 200 nM | 30 to 200 nM | – | – | – | – | – | – | – | COCCN1C(=O)N(c2c(F)c(OC)cc(OC)c2F)Cc2cnc(-c3ccc(C4(C#N)CCC4)nc3)cc21 [Example 139, 1-(5-(3-(2,6-difluoro-3,5-dimethoxyphenyl)-1-(2-methoxyethyl)-2-oxo-1,2,3,4-tetrahydropyrido[4,3-d]pyrimidin-7-yl)pyridin-2-yl)cyclobutanecarbonitrile]
< 10 nM | 10 to 30 nM | 30 to 200 nM | 30 to 200 nM | – | – | – | – | – | – | – | COc1cc(OC)c(F)c(N2Cc3cnc(-c4ccc(C5(C#N)CCC5)nc4)cc3N(CC3CC3)C2=O)c1F [Example 140, 1-(5-(1-(cyclopropylmethyl)-3-(2,6-difluoro-3,5-dimethoxyphenyl)-2-oxo-1,2,3,4-tetrahydropyrido[4,3-d]pyrimidin-7-yl)pyridin-2-yl)cyclobutanecarbonitrile]
– | – | – | – | < 10 nM | >10 | >3 | < 10 nM | < 10 nM | 10 to 30 nM | – | COc1cc(OC)c(F)c(N2Cc3cnc(-c4cnn(C5CCN(S(C)(=O)=O)C5)c4)cc3C3(CC3)C2=O)c1F (stereo not shown) [Example 147, 2′-(2,6-difluoro-3,5-dimethoxyphenyl)-6′-(1-(1-(methylsulfonyl)pyrrolidin-3-yl)-1H-pyrazol-4-yl)-1′H-spiro[cyclopropane-1,4′-[2,7]naphthyridin]-3′(2′H)-one]
– | – | – | – | 10 to 30 nM | >10 | >3 | < 10 nM | 10 to 30 nM | 30 to 200 nM | – | COc1cc(OC)c(F)c(N2Cc3cnc(-c4cnn(CCC5CCN(S(C)(=O)=O)CC5)c4)cc3C3(CC3)C2=O)c1F [Example 148, 2′-(2,6-difluoro-3,5-dimethoxyphenyl)-6′-(1-(2-(1-(methylsulfonyl)piperidin-4-yl)ethyl)-1H-pyrazol-4-yl)-1′H-spiro[cyclopropane-1,4′-[2,7]naphthyridin]-3′(2′H)-one]
– | – | – | – | < 10 nM | >5 | >5 | < 10 nM | < 10 nM | – | < 10 nM | COc1cc(OC)c(F)c(N2Cc3cnc(-c4cnn(C5CCN(C(C)=O)C5)c4)cc3C3(CC3)C2=O)c1F (stereo not shown) [Example 150, 6′-(1-(1-acetylpyrrolidin-3-yl)-1H-pyrazol-4-yl)-2′-(2,6-difluoro-3,5-dimethoxyphenyl)-1′H-spiro[cyclopropane-1,4′-[2,7]naphthyridin]-3′(2′H)-one]
– | – | – | – | < 10 nM | >5 | >5 | < 10 nM | < 10 nM | – | < 10 nM | COc1cc(OC)c(F)c(N2Cc3cnc(-c4cnn(CCCN5CCOCC5)c4)cc3C3(CC3)C2=O)c1F [Example 151, 2′-(2,6-difluoro-3,5-dimethoxyphenyl)-6′-(1-(3-morpholinopropyl)-1H-pyrazol-4-yl)-1′H-spiro[cyclopropane-1,4′-[2,7]naphthyridin]-3′(2′H)-one]
– | – | – | – | 10 to 30 nM | >5 | >3 | < 10 nM | 10 to 30 nM | 30 to 200 nM | – | COc1cc(OC)c(F)c(N2Cc3cnc(-c4cn(CC#N)nc4C)cc3C3(CC3)C2=O)c1F [Example 153, 2-(4-(2′-(2,6-difluoro-3,5-dimethoxyphenyl)-3′-oxo-2′,3′-dihydro-1′H-spiro[cyclopropane-1,4′-[2,7]naphthyridine]-6′-yl)-3-methyl-1H-pyrazol-1-yl)acetonitrile]
– | – | – | – | 30 to 200 nM | >5 | >1 | 10 to 30 nM | 30 to 200 nM | 30 to 200 nM | – | COc1cc(OC)c(F)c(N2Cc3cnc(-c4cn(Cc5cccnc5)nc4C)cc3C3(CC3)C2=O)c1F [Example 155, 2′-(2,6-difluoro-3,5-dimethoxyphenyl)-6′-(3-methyl-1-(pyridin-3-ylmethyl)-1H-pyrazol-4-yl)-1′H-spiro[cyclopropane-1,4′-[2,7]naphthyridin]-3′(2′H)-one]
– | – | – | – | 10 to 30 nM | >5 | >1 | < 10 nM | 10 to 30 nM | 30 to 200 nM | – | COc1cc(OC)c(F)c(N2Cc3cnc(-c4cn(CCC#N)nc4C)cc3C3(CC3)C2=O)c1F [Example 156, 3-(4-(2′-(2,6-difluoro-3,5-dimethoxyphenyl)-3′-oxo-2′,3′-dihydro-1′H-spiro[cyclopropane-1,4,-[2,7]naphthyridine]-6′-yl)-3-methyl-1H-pyrazol-1-yl)propanenitrile]
– | – | – | – | < 10 nM | >5 | >3 | < 10 nM | < 10 nM | 10 to 30 nM | – | COc1cc(OC)c(F)c(N2Cc3cnc(-c4cnn(CCN5CCOCC5)c4)cc3C3(CC3)C2=O)c1F [Example 157, 2′-(2,6-difluoro-3,5-dimethoxyphenyl)-6′-(1-(2-morpholinoethyl)-1H-pyrazol-4-yl)-1′H-spiro[cyclopropane-1,4′-[2,7]naphthyridin]-3′(2′H)-one]
– | – | – | – | < 10 nM | >5 | >3 | < 10 nM | 10 to 30 nM | 30 to 200 nM | – | CCn1cc(-c2cc3c(cn2)CN(c2c(F)c(OC)cc(OC)c2F)C(=O)C32CC2)c(C)n1 [Example 158, 2′-(2,6-difluoro-3,5-dimethoxyphenyl)-6′-(1-ethyl-3-methyl-1H-pyrazol-4-yl)-1′H-spiro[cyclopropane-1,4′-[2,7]naphthyridin]-3′(2′H)-one]
– | – | – | – | 10 to 30 nM | >5 | >3 | 10 to 30 nM | 30 to 200 nM | 30 to 200 nM | – | COc1cc(OC)c(F)c(N2Cc3cnc(-c4cn(CC(=O)N5CCOCC5)nc4C)cc3C3(CC3)C2=O)c1F [Example 159, 2′-(2,6-difluoro-3,5-dimethoxyphenyl)-6′-(3-methyl-1-(2-morpholino-2-oxoethyl)-1H-pyrazol-4-yl)-1′H-spiro[cyclopropane-1,4′-[2,7]naphthyridin]-3′(2′H)-one]
– | – | – | – | < 10 nM | >5 | >5 | < 10 nM | 10 to 30 nM | 10 to 30 nM | – | COc1cc(OC)c(F)c(N2Cc3cnc(-c4csc(N(C)C)n4)cc3C3(CC3)C2=O)c1F [Example 160, 2′-(2,6-difluoro-3,5-dimethoxyphenyl)-6′-(2-(dimethylamino)thiazol-4-yl)-1′H-spiro[cyclopropane-1,4′-[2,7]naphthyridin]-3′(2′H)-one]
– | – | – | – | < 10 nM | >5 | >3 | < 10 nM | 10 to 30 nM | 10 to 30 nM | – | COc1cc(OC)c(F)c(N2Cc3cnc(-c4cnn(CCN5CCC(OC)C5)c4)cc3C3(CC3)C2=O)c1F (stereo not shown) [Example 161, 2′-(2,6-difluoro-3,5-dimethoxyphenyl)-6′-(1-(2-(3-methoxypyrrolidin-1-yl)ethyl)-1H-pyrazol-4-yl)-1′H-spiro[cyclopropane-1,4′-[2,7]naphthyridin]-3′(2′H)-one]
– | – | – | – | < 10 nM | >5 | >1 | < 10 nM | < 10 nM | 10 to 30 nM | – | COc1cc(OC)c(F)c(N2Cc3cnc(-c4cnn(CC5CCCS(=O)(=O)N5)c4)cc3C3(CC3)C2=O)c1F (stereo not shown) [Example 162, 2′-(2,6-difluoro-3,5-dimethoxyphenyl)-6′-{1-[(1,1-dioxido-1,2-thiazinan-3-yl)methyl]-1H-pyrazol-4-yl}-1′H-spiro[cyclopropane-1,4′-[2,7]naphthyridin]-3′(2′H)-one]

SMILES | IC50 [1, 5] | IC50 [2, 5] | IC50 [3, 5] | IC50 [4, 6] | IC50 ([1]; pre-incubated for 4 hours) | FGFR1/FGFR3 IC50 ratio ([2]; pre-incubated for 4 hours) | FGFR4/FGFR3 IC50 ratio ([2]; pre-incubated for 4 hours) | IC50 ([2]; pre-incubated for 4 hours) | IC50 ([3]; pre-incubated for 4 hours) | IC50 [4, 7] | IC50 [4, 8]
COc1cc(OC)c(F)c(N2Cc3cnc(-c4cn(C5CCN(CC#N)C5)nc4C)cc3C3(CC3)C2=O)c1F (stereo not shown) [Example 154, 2-(3-(4-(2′-(2,6-difluoro-3,5-dimethoxyphenyl)-3′-oxo-2′,3′-dihydro-1′H-spiro[cyclopropane-1,4′-[2,7]naphthyridine]-6′-yl)-3-methyl-1H-pyrazol-1-yl)pyrrolidin-1-yl)acetonitrile] | – | – | – | – | 10 to 30 nM | >5 | >3 | 10 to 30 nM | 30 to 200 nM | 30 to 200 nM | –
